These are literature values, as cited in publication PMC4274137 (HIV/AIDS (Auckland, N.Z.), 2014).

Like-named read-outs stand apart in the source and are kept apart here.

The test system of data set [1] is HIV patients.
In data set [2] the test system is HIV patients. As to conditions: Danish study.
Data set [3] has as its system HIV dyslipidemia.
Data set [4] has as its system HIV patients. The source holds these as a separate data set.
Data set [5] relates to HIV patients. To be noted: DAD study.
In data set [6] the test system is HIV patients. As to conditions: HIV patients in France.
The subject of data set [7] is Asian patients with HIV.
[8] abbreviates: HIV dyslipidemia, ezetimibe monotherapy or combined with statin.

As to `C[C@H](Cn1cnc2c(N)ncnc21)OCP(=O)(O)O` [tenofovir], the “high triglycerides and lipoatrophy (NRTI effect)” value in data set [1] (compared with other NRTIs) was “this effect is less seen”. Moreover, in data set [2], the “estimated glomerular filtration rate (eGFR)” value was “reduced estimated glomerular filtration rate”.
As for `O=C(O)c1cccnc1` [Niacin], in data set [3] (HIV patients, two studies), the “efficacy in improving lipid profile” value is listed as “effective”. Further, the safety result in data set [4] (HIV patients, two studies) is given as “safe”.
For `Nc1nc(NC2CC2)c2ncn([C@H]3C=C[C@@H](CO)C3)c2n1` [abacavir], in data set [5], the “risk of myocardial infarction” value is recorded as “associated with independent risk of myocardial infarction”.
`Cc1cn([C@H]2C=C[C@@H](CO)O2)c(=O)[nH]c1=O` [stavudine]: in data set [6], the “risk factor for hypothyroidism” value is “risk factors”. For the same molecule, in data set [7], the “association of treatment with NAFLD” value was “not with HIV-related factors”.
Take `CC(C)OC(=O)C(C)(C)Oc1ccc(C(=O)c2ccc(Cl)cc2)cc1` [Fenofibrate]: in data set [3] (people with HIV infection), the “efficacy in mixed dyslipidemia and hypertriglyceridemia” value is “useful”. Further, in data set [4] (people with HIV infection), the safety entry is on record as “generally safe”.
Take `O=C1Nc2ccc(Cl)cc2[C@@](C#CC2CC2)(C(F)(F)F)O1` [efavirenz]: the “total cholesterol and triglycerides” value in data set [1] (HIV patients on NNRTIs) is “associated with increase in total cholesterol and triglycerides”.
For `O=C1[C@H](CC[C@H](O)c2ccc(F)cc2)[C@@H](c2ccc(O)cc2)N1c1ccc(F)cc1` [Ezetimibe], the lipid-lowering efficacy result in data set [3] (setting [8]) is recorded as “effective”. For the same molecule, the safety result in data set [4] (setting [8]) is “safe”.
As to `Nc1ccn([C@H]2CC[C@@H](CO)O2)c(=O)n1` [zalcitabine], the “association of treatment with NAFLD” value in data set [7] is recorded as “not with HIV-related factors”.
